Drawing on patent US20220009920A1 (GB005, Inc., priority 2020, published 2022), this text covers inhibition for three compounds.

Molecules are shown by their SMILES. Read-outs that look alike come from different tables or passages of the source.

Assay in all cases: Large panel kinase profiling
Format in all cases: biochemical

Assay [1] has as its target PTK2B (Homo sapiens, UniProt Q14289). The method in brief: (§1)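 Kinase activity was followed with the PhosphoSens CSox-Sensor platform, testing compound at 1 μM in the presence of 1 mM ATP. Reactions ran at 30° C. and fluorescence (Ex 360 nm/Em 485 nm) was read kinetically every 1 min.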
Assay [2] concerns the target T1, JAK2(JH1) (Homo sapiens, UniProt O60674).
T1 construct: JAK2(JH1)
To be noted: 1 μM test article, 1 mM ATP. The gist of the method:
as §1

The target in assay [3] is T2, TAOK3 (Homo sapiens, UniProt Q9H2K8).
T2 construct: AssayQuant Technologies, Inc. (contract assay)
T2 sequence (Q9H2K8 1-898): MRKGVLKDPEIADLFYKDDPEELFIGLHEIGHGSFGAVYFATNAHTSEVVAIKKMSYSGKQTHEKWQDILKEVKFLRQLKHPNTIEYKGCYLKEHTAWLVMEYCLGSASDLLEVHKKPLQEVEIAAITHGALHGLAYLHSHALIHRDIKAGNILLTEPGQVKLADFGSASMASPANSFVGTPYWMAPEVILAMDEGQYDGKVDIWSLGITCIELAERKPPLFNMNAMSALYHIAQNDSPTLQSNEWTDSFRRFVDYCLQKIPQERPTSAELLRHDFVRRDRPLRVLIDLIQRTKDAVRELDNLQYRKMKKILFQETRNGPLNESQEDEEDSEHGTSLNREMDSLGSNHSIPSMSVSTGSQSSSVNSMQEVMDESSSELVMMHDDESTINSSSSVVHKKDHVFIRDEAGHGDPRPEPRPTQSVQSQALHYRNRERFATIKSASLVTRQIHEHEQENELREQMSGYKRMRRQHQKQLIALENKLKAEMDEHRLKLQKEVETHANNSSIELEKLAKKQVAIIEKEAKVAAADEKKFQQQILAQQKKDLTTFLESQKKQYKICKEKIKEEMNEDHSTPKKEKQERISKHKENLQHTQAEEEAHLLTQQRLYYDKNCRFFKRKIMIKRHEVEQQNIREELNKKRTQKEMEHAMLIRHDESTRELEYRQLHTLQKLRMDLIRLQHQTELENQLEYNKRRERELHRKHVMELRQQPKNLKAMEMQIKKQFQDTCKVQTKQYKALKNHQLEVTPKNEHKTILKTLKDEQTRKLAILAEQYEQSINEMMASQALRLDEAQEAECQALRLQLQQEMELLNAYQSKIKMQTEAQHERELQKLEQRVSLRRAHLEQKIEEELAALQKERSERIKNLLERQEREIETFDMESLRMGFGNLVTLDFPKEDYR
The conditions noted are these: 1 μM test article, 1 mM ATP. The gist of the method:
as §1

Assay [4] addresses T3, PRKCI/PKCI (Homo sapiens, UniProt P41743).
T3 sequence (P41743 1-596): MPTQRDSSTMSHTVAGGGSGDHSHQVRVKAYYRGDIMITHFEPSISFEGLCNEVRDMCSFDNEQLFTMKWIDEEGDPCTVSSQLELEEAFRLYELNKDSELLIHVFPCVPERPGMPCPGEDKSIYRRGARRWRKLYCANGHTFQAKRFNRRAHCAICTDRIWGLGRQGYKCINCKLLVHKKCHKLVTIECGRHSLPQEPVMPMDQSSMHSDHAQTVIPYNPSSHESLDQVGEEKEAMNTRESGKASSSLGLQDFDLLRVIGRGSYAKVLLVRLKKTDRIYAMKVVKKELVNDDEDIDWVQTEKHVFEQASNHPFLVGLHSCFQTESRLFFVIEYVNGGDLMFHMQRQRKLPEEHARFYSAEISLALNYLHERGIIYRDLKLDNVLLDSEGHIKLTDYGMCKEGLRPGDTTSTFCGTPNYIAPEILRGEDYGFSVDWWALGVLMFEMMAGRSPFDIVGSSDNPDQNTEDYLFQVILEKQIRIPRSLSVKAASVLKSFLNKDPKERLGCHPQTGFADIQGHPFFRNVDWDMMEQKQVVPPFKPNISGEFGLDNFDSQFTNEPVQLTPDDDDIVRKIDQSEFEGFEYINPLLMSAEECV
To be noted: 1 μM test article, 1 mM ATP. The gist of the method:
as §1

The target in assay [5] is BUB1 (Homo sapiens, UniProt O43683). To be noted: 1 μM test article, 1 mM ATP. The method in brief: as §1
[6] abbreviates: PTK2B, 1 μM test article, 1 mM ATP, read-out: % Inhibition.

T1 sequence (O60674 849-1124 limits assumed, species assumed): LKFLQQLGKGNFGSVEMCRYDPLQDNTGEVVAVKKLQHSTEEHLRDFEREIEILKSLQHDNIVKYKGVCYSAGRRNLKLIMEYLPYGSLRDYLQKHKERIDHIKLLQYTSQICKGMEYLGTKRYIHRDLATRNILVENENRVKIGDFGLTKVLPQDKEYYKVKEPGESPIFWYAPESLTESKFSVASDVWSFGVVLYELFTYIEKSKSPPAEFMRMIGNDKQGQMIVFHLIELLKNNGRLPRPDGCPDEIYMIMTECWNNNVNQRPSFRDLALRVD
Sequence of PTK2B (Q14289 whole entry, species assumed): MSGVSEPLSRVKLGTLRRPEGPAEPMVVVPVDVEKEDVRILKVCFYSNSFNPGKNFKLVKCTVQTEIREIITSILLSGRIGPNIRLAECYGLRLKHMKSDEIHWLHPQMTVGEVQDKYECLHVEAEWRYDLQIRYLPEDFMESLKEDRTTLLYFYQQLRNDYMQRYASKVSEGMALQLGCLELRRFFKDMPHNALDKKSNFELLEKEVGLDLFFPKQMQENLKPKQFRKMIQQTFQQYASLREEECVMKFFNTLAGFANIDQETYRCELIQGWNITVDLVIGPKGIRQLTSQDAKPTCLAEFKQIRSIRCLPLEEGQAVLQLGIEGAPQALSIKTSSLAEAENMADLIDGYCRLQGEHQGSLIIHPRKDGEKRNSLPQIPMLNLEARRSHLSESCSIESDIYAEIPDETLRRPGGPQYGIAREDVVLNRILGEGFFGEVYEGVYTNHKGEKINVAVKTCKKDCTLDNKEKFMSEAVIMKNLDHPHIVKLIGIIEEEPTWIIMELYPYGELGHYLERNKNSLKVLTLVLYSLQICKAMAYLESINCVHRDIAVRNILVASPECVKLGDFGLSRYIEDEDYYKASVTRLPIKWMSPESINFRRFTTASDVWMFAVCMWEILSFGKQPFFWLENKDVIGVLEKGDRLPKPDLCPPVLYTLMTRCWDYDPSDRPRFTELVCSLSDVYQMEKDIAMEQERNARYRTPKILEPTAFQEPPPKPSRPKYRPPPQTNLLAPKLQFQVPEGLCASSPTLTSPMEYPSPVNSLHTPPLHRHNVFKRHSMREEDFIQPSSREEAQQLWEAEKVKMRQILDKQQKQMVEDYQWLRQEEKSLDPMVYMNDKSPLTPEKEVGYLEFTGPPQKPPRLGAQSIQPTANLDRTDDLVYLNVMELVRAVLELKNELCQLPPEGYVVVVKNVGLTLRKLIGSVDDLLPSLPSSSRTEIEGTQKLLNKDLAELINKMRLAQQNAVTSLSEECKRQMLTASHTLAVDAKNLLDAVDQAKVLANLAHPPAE
Sequence of BUB1 (O43683 whole entry): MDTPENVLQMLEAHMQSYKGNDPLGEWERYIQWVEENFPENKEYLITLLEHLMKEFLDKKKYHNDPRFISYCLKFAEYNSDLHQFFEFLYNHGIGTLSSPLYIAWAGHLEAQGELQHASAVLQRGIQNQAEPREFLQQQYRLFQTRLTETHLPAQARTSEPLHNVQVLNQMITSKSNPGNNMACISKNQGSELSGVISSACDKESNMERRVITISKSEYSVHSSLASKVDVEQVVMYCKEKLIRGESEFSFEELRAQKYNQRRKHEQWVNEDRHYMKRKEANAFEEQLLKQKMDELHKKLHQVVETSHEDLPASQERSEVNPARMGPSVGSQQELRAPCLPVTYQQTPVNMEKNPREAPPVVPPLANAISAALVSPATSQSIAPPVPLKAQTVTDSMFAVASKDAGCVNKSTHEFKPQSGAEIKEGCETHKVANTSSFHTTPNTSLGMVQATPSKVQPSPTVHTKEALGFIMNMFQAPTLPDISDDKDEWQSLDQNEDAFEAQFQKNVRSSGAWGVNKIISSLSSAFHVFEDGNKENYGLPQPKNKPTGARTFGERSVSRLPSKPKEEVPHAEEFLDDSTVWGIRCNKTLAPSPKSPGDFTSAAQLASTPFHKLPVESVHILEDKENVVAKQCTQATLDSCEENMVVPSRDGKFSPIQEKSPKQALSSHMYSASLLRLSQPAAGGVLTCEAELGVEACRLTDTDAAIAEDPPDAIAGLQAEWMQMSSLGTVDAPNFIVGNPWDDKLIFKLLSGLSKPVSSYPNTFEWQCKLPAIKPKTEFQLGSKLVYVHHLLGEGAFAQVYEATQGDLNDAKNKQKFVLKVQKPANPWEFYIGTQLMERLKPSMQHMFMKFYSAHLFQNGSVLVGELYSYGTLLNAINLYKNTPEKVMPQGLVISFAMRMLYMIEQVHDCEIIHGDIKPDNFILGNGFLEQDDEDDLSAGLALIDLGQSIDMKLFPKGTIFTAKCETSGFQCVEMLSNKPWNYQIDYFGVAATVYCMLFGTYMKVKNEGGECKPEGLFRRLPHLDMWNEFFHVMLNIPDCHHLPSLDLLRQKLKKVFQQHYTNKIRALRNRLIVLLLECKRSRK

Turning to `C=CC(=O)N1CCCC(c2c(F)cc(C(N)=O)c3[nH]c4c(c23)CCCCC4)C1` (single isomer, unassigned) [Compound 5-6], the inhibition at 1 µM is -16.1% in assay [1] (setting [6]); 11.4% in assay [2]; 14.1% in assay [3]; -0.6% in assay [4]; 8.2% in assay [5].

Regarding `C=CC(=O)N1CCC[C@@H](c2c(F)cc(C(N)=O)c3[nH]c4c(c23)CC2(CC4)CC2)C1` [Compound 6-2, (S)-5-(1-acryloylpiperidin-3-yl)-6-fluoro-1,2,4,9-tetrahydrospiro[carbazole-3,1′-cyclopropane]-8-carboxamide], the inhibition at 1 µM in assay [1] was -15.4%; in assay [2], 10.3%; in assay [3] it was 1.6%; in assay [4] it was 9%; in assay [5], -11.5%.

For `C=CC(=O)N1CCC[C@@H](c2c(F)cc(C(N)=O)c3[nH]c4c(c23)CCC4)C1` [Compound 10-2, (S)-8-(1-acryloylpiperidin-3-yl)-7-fluoro-1,2,3,4-tetrahydrocyclo-penta[b]indole-5-carboxamide], the inhibition at 1 µM in assay [1] (setting [6]) was -8.8%; in assay [2], -0.8%; in assay [3], -2.9%; in assay [4], -3.3%; in assay [5] it was -2.3%.
